Experimental findings from the supplement of paper PMC10307832 are described below.

Holding throughout (test): relative viability (nuclei count vs DMSO), 5 days (fraction); higher = more cells survive
Compound in the experiment “Avagacestat + Foretinib”: NC(=O)[C@@H](CCC(F)(F)F)N(Cc1ccc(-c2ncon2)cc1F)S(=O)(=O)c1ccc(Cl)cc1 [Avagacestat] + COc1cc2c(Oc3ccc(NC(=O)C4(C(=O)Nc5ccc(F)cc5)CC4)cc3F)ccnc2cc1OCCCN1CCOCC1 [Foretinib] (partner 0.25 µM)
In a few lines: (§1)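 Lung cancer cell lines were pin-tool dosed in 1536-well plates on the day after seeding, with either a lone drug or a fixed anchor-drug dose plus five library-drug doses (not always all listed) in √10 steps. Nuclei were counted on 4× images after 5 days. Relative viability is the ratio of treated-well to vehicle-well nuclei counts, with each value a median of duplicate plates.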

Compound in the experiment “Avagacestat + Pictilisib”: NC(=O)[C@@H](CCC(F)(F)F)N(Cc1ccc(-c2ncon2)cc1F)S(=O)(=O)c1ccc(Cl)cc1 [Avagacestat] + CS(=O)(=O)N1CCN(Cc2cc3nc(-c4cccc5[nH]ncc45)nc(N4CCOCC4)c3s2)CC1 [Pictilisib] (partner 1 µM)
The method, boiled down: as §1

Compound in the experiment “Avagacestat + AZD7762”: NC(=O)[C@@H](CCC(F)(F)F)N(Cc1ccc(-c2ncon2)cc1F)S(=O)(=O)c1ccc(Cl)cc1 [Avagacestat] + NC(=O)Nc1cc(-c2cccc(F)c2)sc1C(=O)N[C@H]1CCCNC1 [AZD7762] (partner 0.2 µM)
In a few lines:
as §1

Compound in the experiment “Avagacestat + Vorinostat”: NC(=O)[C@@H](CCC(F)(F)F)N(Cc1ccc(-c2ncon2)cc1F)S(=O)(=O)c1ccc(Cl)cc1 [Avagacestat] + O=C(CCCCCCC(=O)Nc1ccccc1)NO [Vorinostat] (partner 1 µM)
The method, boiled down: as §1

In the case of NCI-H1975, the relative viability with Avagacestat + Foretinib (first compound 0.08 µM) came out at 1.1; in the experiment with Avagacestat + Foretinib (first compound 0.253 µM), 1.16; with Avagacestat + Foretinib (first compound 0.8 µM), 0.988; with Avagacestat + Foretinib (first compound 2.53 µM), 1.02; with Avagacestat + Foretinib (first compound 8 µM) it was 1.01; with Avagacestat + Pictilisib (first compound 0.08 µM), 0.338. Further, the relative viability with Avagacestat + Pictilisib (first compound 0.253 µM) is 0.289; with Avagacestat + Pictilisib (first compound 0.8 µM) it was 0.325; with Avagacestat + Pictilisib (first compound 2.53 µM), 0.258; with Avagacestat + Pictilisib (first compound 8 µM), 0.298; with Avagacestat + AZD7762 (first compound 0.08 µM), 0.718; with Avagacestat + AZD7762 (first compound 0.253 µM), 0.712. In addition, the relative viability in the experiment with Avagacestat + AZD7762 (first compound 0.8 µM) is 0.853; with Avagacestat + AZD7762 (first compound 2.53 µM) it was 0.649; with Avagacestat + AZD7762 (first compound 8 µM), 0.642; in the experiment with Avagacestat + Vorinostat (first compound 0.08 µM), 0.823; with Avagacestat + Vorinostat (first compound 0.253 µM), 0.866; in the experiment with Avagacestat + Vorinostat (first compound 0.8 µM), 0.765. Further, the relative viability in the experiment with Avagacestat + Vorinostat (first compound 2.53 µM) turned out to be 0.694; with Avagacestat + Vorinostat (first compound 8 µM), 0.628.

On to LU99A, for which the relative viability with Avagacestat + Foretinib (first compound 0.08 µM) is 0.807; with Avagacestat + Foretinib (first compound 0.253 µM) it was 0.875; in the experiment with Avagacestat + Foretinib (first compound 0.8 µM), 0.925; in the experiment with Avagacestat + Foretinib (first compound 2.53 µM) it was 0.837; in the experiment with Avagacestat + Foretinib (first compound 8 µM) it was 0.786; with Avagacestat + Pictilisib (first compound 0.08 µM) it was 0.282. The relative viability stood at 0.325 with Avagacestat + Pictilisib (first compound 0.253 µM); 0.341 with Avagacestat + Pictilisib (first compound 0.8 µM); 0.277 in the experiment with Avagacestat + Pictilisib (first compound 2.53 µM); 0.307 with Avagacestat + Pictilisib (first compound 8 µM); 0.422 with Avagacestat + AZD7762 (first compound 0.08 µM); 0.407 with Avagacestat + AZD7762 (first compound 0.253 µM). For the same cell line, the relative viability came to 0.314 in the experiment with Avagacestat + AZD7762 (first compound 0.8 µM); 0.341 with Avagacestat + AZD7762 (first compound 2.53 µM); 0.329 with Avagacestat + AZD7762 (first compound 8 µM); 0.611 with Avagacestat + Vorinostat (first compound 0.08 µM); 0.541 with Avagacestat + Vorinostat (first compound 0.253 µM); 0.624 with Avagacestat + Vorinostat (first compound 0.8 µM). Further, the relative viability turned out to be 0.468 with Avagacestat + Vorinostat (first compound 2.53 µM) and 0.481 with Avagacestat + Vorinostat (first compound 8 µM).

With NCI-H2405, the relative viability in the experiment with Avagacestat + Foretinib (first compound 0.08 µM) amounted to 1.04; with Avagacestat + Foretinib (first compound 0.253 µM) it was 1.03; with Avagacestat + Foretinib (first compound 0.8 µM) it was 0.998; with Avagacestat + Foretinib (first compound 2.53 µM) it was 0.938; with Avagacestat + Foretinib (first compound 8 µM), 0.927; with Avagacestat + Pictilisib (first compound 0.08 µM), 0.432. Further, the relative viability was found to be 0.465 with Avagacestat + Pictilisib (first compound 0.253 µM); 0.473 in the experiment with Avagacestat + Pictilisib (first compound 0.8 µM); 0.329 in the experiment with Avagacestat + Pictilisib (first compound 2.53 µM); 0.377 in the experiment with Avagacestat + Pictilisib (first compound 8 µM); 0.895 with Avagacestat + AZD7762 (first compound 0.08 µM); 0.839 in the experiment with Avagacestat + AZD7762 (first compound 0.253 µM). Further, the relative viability in the experiment with Avagacestat + AZD7762 (first compound 0.8 µM) is 0.73; with Avagacestat + AZD7762 (first compound 2.53 µM), 0.701; with Avagacestat + AZD7762 (first compound 8 µM) it was 0.754; with Avagacestat + Vorinostat (first compound 0.08 µM) it was 1.04; with Avagacestat + Vorinostat (first compound 0.253 µM), 1.1; in the experiment with Avagacestat + Vorinostat (first compound 0.8 µM), 1.12. In addition, the relative viability with Avagacestat + Vorinostat (first compound 2.53 µM) was 0.943; with Avagacestat + Vorinostat (first compound 8 µM), 0.933.

With HOP-62, the relative viability with Avagacestat + Foretinib (first compound 0.08 µM) came out at 1.29; in the experiment with Avagacestat + Foretinib (first compound 0.253 µM) it was 1.2; with Avagacestat + Foretinib (first compound 0.8 µM), 1.17; with Avagacestat + Foretinib (first compound 2.53 µM) it was 0.948; in the experiment with Avagacestat + Foretinib (first compound 8 µM), 0.996; in the experiment with Avagacestat + Pictilisib (first compound 0.08 µM) it was 0.825. The relative viability turned out to be 0.778 with Avagacestat + Pictilisib (first compound 0.253 µM); 0.525 in the experiment with Avagacestat + Pictilisib (first compound 0.8 µM); 0.573 with Avagacestat + Pictilisib (first compound 2.53 µM); 0.857 with Avagacestat + Pictilisib (first compound 8 µM); 0.811 in the experiment with Avagacestat + AZD7762 (first compound 0.08 µM); 0.714 in the experiment with Avagacestat + AZD7762 (first compound 0.253 µM). Besides, the relative viability with Avagacestat + AZD7762 (first compound 0.8 µM) was found to be 0.62; in the experiment with Avagacestat + AZD7762 (first compound 2.53 µM), 0.53; in the experiment with Avagacestat + AZD7762 (first compound 8 µM) it was 0.47; with Avagacestat + Vorinostat (first compound 0.08 µM) it was 0.822; in the experiment with Avagacestat + Vorinostat (first compound 0.253 µM), 0.667; with Avagacestat + Vorinostat (first compound 0.8 µM) it was 0.65. In addition, the relative viability stood at 0.588 in the experiment with Avagacestat + Vorinostat (first compound 2.53 µM) and 0.564 with Avagacestat + Vorinostat (first compound 8 µM).

NCI-H322M: the relative viability in the experiment with Avagacestat + Foretinib (first compound 0.08 µM) came out at 0.969; with Avagacestat + Foretinib (first compound 0.253 µM), 0.935; with Avagacestat + Foretinib (first compound 0.8 µM), 1.04; with Avagacestat + Foretinib (first compound 2.53 µM) it was 0.728; in the experiment with Avagacestat + Foretinib (first compound 8 µM) it was 0.774; in the experiment with Avagacestat + Pictilisib (first compound 0.08 µM) it was 0.503. In addition, the relative viability worked out at 0.487 in the experiment with Avagacestat + Pictilisib (first compound 0.253 µM); 0.478 in the experiment with Avagacestat + Pictilisib (first compound 0.8 µM); 0.441 with Avagacestat + Pictilisib (first compound 2.53 µM); 0.415 in the experiment with Avagacestat + Pictilisib (first compound 8 µM); 0.609 with Avagacestat + AZD7762 (first compound 0.08 µM); 0.542 with Avagacestat + AZD7762 (first compound 0.253 µM). The relative viability with Avagacestat + AZD7762 (first compound 0.8 µM) is 0.496; in the experiment with Avagacestat + AZD7762 (first compound 2.53 µM), 0.503; with Avagacestat + AZD7762 (first compound 8 µM) it was 0.588; in the experiment with Avagacestat + Vorinostat (first compound 0.08 µM) it was 0.811; in the experiment with Avagacestat + Vorinostat (first compound 0.253 µM) it was 0.779; in the experiment with Avagacestat + Vorinostat (first compound 0.8 µM) it was 0.855. In addition, the relative viability was found to be 0.821 with Avagacestat + Vorinostat (first compound 2.53 µM) and 0.777 with Avagacestat + Vorinostat (first compound 8 µM).

For the cell line HCC-78, the relative viability with Avagacestat + Foretinib (first compound 0.08 µM) amounted to 0.588; in the experiment with Avagacestat + Foretinib (first compound 0.253 µM), 0.523; with Avagacestat + Foretinib (first compound 0.8 µM), 0.542; in the experiment with Avagacestat + Foretinib (first compound 2.53 µM), 0.492; in the experiment with Avagacestat + Foretinib (first compound 8 µM) it was 0.54; with Avagacestat + Pictilisib (first compound 0.08 µM) it was 0.179. The relative viability turned out to be 0.222 in the experiment with Avagacestat + Pictilisib (first compound 0.253 µM); 0.244 with Avagacestat + Pictilisib (first compound 0.8 µM); 0.192 in the experiment with Avagacestat + Pictilisib (first compound 2.53 µM); 0.235 with Avagacestat + Pictilisib (first compound 8 µM); 0.61 in the experiment with Avagacestat + AZD7762 (first compound 0.08 µM); 0.615 with Avagacestat + AZD7762 (first compound 0.253 µM). In addition, the relative viability in the experiment with Avagacestat + AZD7762 (first compound 0.8 µM) turned out to be 0.665; in the experiment with Avagacestat + AZD7762 (first compound 2.53 µM), 0.461; in the experiment with Avagacestat + AZD7762 (first compound 8 µM), 0.529; with Avagacestat + Vorinostat (first compound 0.08 µM), 0.499; with Avagacestat + Vorinostat (first compound 0.253 µM), 0.458; with Avagacestat + Vorinostat (first compound 0.8 µM) it was 0.416. Also, the relative viability in the experiment with Avagacestat + Vorinostat (first compound 2.53 µM) was determined as 0.391; with Avagacestat + Vorinostat (first compound 8 µM), 0.351.
